Experimental data: patent US7141546B1, “CRFR2 selective ligands” (priority 2001, dated 2006)
Read-outs that look alike come from different tables or passages of the source. Bridge positions count the residues as written; N and C are the ends. Square brackets hold non-standard residues; d marks the D form. Peptide text beside a SMILES is read from it. αMeL = CC(C)C[C@](C)(N)C(=O)O; Nle = CCCC[C@H](N)C(=O)O

How the values were obtained:
human CRFR2b = target: T1, human CRFR2b (Homo sapiens, UniProt Q13324); experiment: Competitive displacement binding assay, stably transfected CHO cells expressing human CRFR2b; settings: for binding selectivity, CRFR2 versus CRFR1: in words, binding to CRFR2 compared with CRFR1
T1 construct: expressed in transfected cells
T1 sequence (Q13324 1-438 isoform Q13324-2): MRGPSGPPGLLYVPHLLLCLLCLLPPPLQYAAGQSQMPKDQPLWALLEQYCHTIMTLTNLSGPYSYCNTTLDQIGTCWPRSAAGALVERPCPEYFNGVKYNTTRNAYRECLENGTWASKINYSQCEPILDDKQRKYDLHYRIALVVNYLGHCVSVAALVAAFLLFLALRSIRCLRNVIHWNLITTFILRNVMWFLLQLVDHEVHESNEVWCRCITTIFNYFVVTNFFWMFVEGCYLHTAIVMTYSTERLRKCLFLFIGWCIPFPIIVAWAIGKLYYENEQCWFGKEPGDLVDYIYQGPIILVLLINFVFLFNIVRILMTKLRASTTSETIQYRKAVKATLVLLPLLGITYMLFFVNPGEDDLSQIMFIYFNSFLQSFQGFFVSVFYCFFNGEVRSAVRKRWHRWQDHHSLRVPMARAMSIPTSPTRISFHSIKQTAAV
Method: (§1) CRF receptors have now been cloned and are disclosed in the aforementioned Chen et al. article, in Perrin, M., et al., P.N.A.S, 92, 2969–2973 (March 1995), and in Lovenberg, T., et al., P.N.A.S., 92, 836–840 (January 1995). Binding affinity is a term used to refer to the strength of interaction between ligand and receptor. […] Ki (inhibitory binding affinity constant) is determined using a “standard” or “tracer” radioactive ligand and thus measures the displacement of the tracer from the receptor or binding protein; it is most properly expressed with reference to such tracer. However, so long as these assays are carefully performed under specific conditions with relatively low concentrations of receptor or the like, the calculated Ki will be substantially the same as its dissociation constant KD. […] It is particularly efficient to test for Ki because only a single tracer need be labelled, e.g. radioiodinated. […] Those reported hereinafter are derived using radioactively labeled [Tyr Glu^1, Nle^17]-Svg as a radioligand.
(§2) Binding assays with cells expressing human CRFR1 are carried out as described in the Chen et al. P.N.A.S., supra. The affinities of test peptides for CRFR1 and CRFR2b stably expressed in CHO cells were determined by competitive displacement of ^125I-(Nle^21, Tyr^32) ovine CRF (for CRFR1) or of [^125I-Tyr^o-]Ucn (for CRFR2b) as described.

CRFR1 [1] = target: T2, CRFR1 (Homo sapiens, UniProt P34998); experiment: Competitive displacement binding assay, cloned hCRFR1 expressed in CHO cells
T2 construct: expressed in transfected cells
T2 sequence (P34998 24-415): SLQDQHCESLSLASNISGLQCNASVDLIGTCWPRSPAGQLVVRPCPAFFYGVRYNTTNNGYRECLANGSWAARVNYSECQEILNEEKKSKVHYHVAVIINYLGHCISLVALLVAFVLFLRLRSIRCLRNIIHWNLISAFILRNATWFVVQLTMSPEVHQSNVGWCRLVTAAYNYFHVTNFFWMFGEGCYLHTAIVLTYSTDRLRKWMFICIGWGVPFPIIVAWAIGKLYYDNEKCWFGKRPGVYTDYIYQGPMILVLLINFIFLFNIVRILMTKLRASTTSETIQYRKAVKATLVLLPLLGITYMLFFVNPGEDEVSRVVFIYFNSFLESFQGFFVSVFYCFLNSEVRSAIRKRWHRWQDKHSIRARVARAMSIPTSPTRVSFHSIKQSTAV
Text: A candidate CRFR2 ligand is also easily evaluated in a binding assay using known CRF receptors, such as that described in Perrin, M., et al., Endocrinology, 118, 1171–1179 (1986). CRF receptors and the details of binding assays are discussed later in this specification. […] One such representative binding assay utilizing CRF-R1 receptor is described in Chen, et al., P.N.A.S., 90, 8967–8971 (October 1993).
as §1, §2

CRFR1 [2] = target: T2, CRFR1; experiment: cAMP accumulation in CHO cells stably transfected with CRFR1 and treated with CRF; assay type: cell-based
Text: (§3) In addition to inhibiting CRF receptor binding, a candidate's CRF receptor antagonist activity may be established by the ability of the compound to antagonize an activity associated with CRF. For example, CRF is known to stimulate various biochemical processes, including adenylate cyclase activity. Therefore, compounds may be evaluated as CRF antagonists by their ability to antagonize CRF-stimulated adenylate cyclase activity by, for example, measuring cAMP levels. The inhibition of CRF-stimulated adenylate cyclase activity, determined by the assay described by G. Battaglia et al., Synapse 1:572 (1987), provides an assay for determining a compound's ability to antagonize CRF activity. Accordingly, CRF receptor antagonist activity may be determined by assay techniques which generally include an initial binding assay followed by such a cAMP screening protocol.
as §2

CRFR2 = target: T3, CRFR2 (Homo sapiens, UniProt Q13324); experiment: cAMP accumulation in CHO cells stably transfected with CRFR2 and treated with CRF; assay type: cell-based; settings: for antagonism of CRF activity with respect to CRFR2 (cAMP accumulation): CHO cells stably transfected with CRFR2, treated with CRF
T3 construct: expressed in transfected cells
T3 sequence (Q13324 1-438 isoform Q13324-2): T1 sequence (Q13324 1-438 isoform Q13324-2)
Text: as §3, with “protocol. […]” for “protocol.”

| Compound | antagonism of CRF activity with respect to CRFR1 (cAMP accumulation) (CRFR1 [2]) | antagonism of CRF activity with respect to CRFR2 (cAMP accumulation) (CRFR2) | binding selectivity, CRFR2 versus CRFR1 (human CRFR2b) | other results |
| --- | --- | --- | --- | --- |
| CCCC[C@H](NC(=O)[C@H](CCCCN)NC(=O)[C@H](CCCNC(=N)N)NC(=O)[C@H](CC(C)C)NC(=O)[C@](C)(CC(C)C)NC(=O)[C@H](Cc1c[nH]cn1)NC(=O)[C@@H](Cc1ccccc1)NC(=O)[C@H](CO)NC(=O)[C@H](CC(C)C)NC(=O)[C@H](CC(=O)O)NC(C)=O)C(=O)N[C@H](C(=O)N[C@@H](CCC(=O)O)C(=O)N[C@H](C(=O)N[C@@H](CCC(=O)O)C(=O)N[C@@H](CCCCN)C(=O)N[C@@H](CCC(N)=O)C(=O)N[C@@H](CCC(=O)O)C(=O)N[C@@H](CCCCN)C(=O)N[C@@H](CCC(=O)O)C(=O)N[C@@H](CCCCN)C(=O)N[C@@H](CCC(N)=O)C(=O)N[C@@H](CCC(N)=O)C(=O)N[C@@H](C)C(=O)N[C@H]1CCC(=O)NCCCC[C@@H](C(=O)N[C@@H](CC(C)C)C(=O)N[C@@H](CC(C)C)C(=O)N[C@@H](CC(C)C)C(=O)N[C@@H](CC(=O)O)C(=O)N[C@@](C)(CC(C)C)C(=O)N[C@H](C(N)=O)[C@@H](C)CC)NC(=O)[C@H](CC(N)=O)NC(=O)[C@H](CC(N)=O)NC1=O)[C@@H](C)CC)[C@@H](C)CC [Example 2 cyclic peptide, (cyclo 31–34)[Ac-D-Phe^11, His^12, CML^13,39, Nle^17, Glu^31, Lys^34]-sauvagine(8–40)] | little or no effect | effectively antagonize CRF activity |  | IC50 (human CRFR2b): 0.0013 µM; IC50 (CRFR1 [1]): > 0.5 µM; Ki (CRFR1 [1]): ~0.543 µM |
| CCCC[C@H](NC(=O)[C@H](CCC(=O)O)NC(=O)[C@H](CC(C)C)NC(=O)[C@@H](NC(=O)[C@H](CCC(=O)O)NC(=O)[C@H](CCCNC(=N)N)NC(=O)[C@H](CC(C)C)NC(=O)[C@](C)(CC(C)C)NC(=O)[C@H](Cc1c[nH]cn1)NC(=O)[C@H](N)Cc1ccccc1)C(C)C)C(=O)N[C@@H](C)C(=O)N[C@@H](CCCNC(=N)N)C(=O)N[C@@H](C)C(=O)N[C@@H](CCC(=O)O)C(=O)N[C@@H](CCC(N)=O)C(=O)N[C@@H](CC(C)C)C(=O)N[C@@H](C)C(=O)N[C@@H](CCC(N)=O)C(=O)N[C@@H](CCC(N)=O)C(=O)N[C@@H](C)C(=O)N[C@H]1CCC(=O)NCCCC[C@@H](C(=O)N[C@@H](CCCCN)C(=O)N[C@@H](CC(C)C)C(=O)N[C@@H](CCCC)C(=O)N[C@@H](CCC(=O)O)C(=O)N[C@@](C)(CC(C)C)C(=O)N[C@H](C(N)=O)[C@@H](C)CC)NC(=O)[C@H](CC(N)=O)NC(=O)[C@H](CO)NC1=O [Example 9B, (cyclo 32–35) [D-Phe^12, CML^14,40, Nle^21,38, Glu^32, Lys^35]-r/hCRF(12–41)] (H-[dF]H[αMeL]LREVLE[Nle]ARAEQLAQQAESNKKL[Nle]E[αMeL]I-NH2; lactam 21-24) |  |  |  | IC50 (CRFR1 [1]; read-out: affinity of cloned hCRFR1 for the peptide (competitive displacement of bound radioligand)): > 0.1 µM |
| (cyclo 31–34) [Ac-Asp^8,D-Phe^11,Lys^34]-Ucn(8–40) [Example 10C] | little or no effect | effectively antagonize CRF activity | very good selectivity | selectivity as Ucn antagonist (CRFR2; in words, compared with the parent Ucn analog): does not significantly alter its selectivity |
| (cyclo 31–34) [D-Tyr^11, Lys^34], -Ucn(11–40) [Example 10] | little or no effect | effectively antagonize CRF activity | very good selectivity |  |
| (cyclo 31–34)[Ac-D-2Nal^11, His^12, CML^13,39, Nle^17, Glu^31, Lys^34]-sauvagine(11–40) [Example 6] |  | effectively antagonize CRF activity |  |  |
| (cyclo 31–34)[Ac-D-3 Pal^11, His^12, CML^13,39, Nle^17, Glu^31, Lys^34]-sauvagine(11–40) [Example 7] |  | effectively antagonize CRF activity |  |  |
| (cyclo 31–34)[Ac-D-Cpa^11, His^12, CML^13,39, Nle^17, Glu^31, Lys^34]-sauvagine(11–40) [Example 5] |  | effectively antagonize CRF activity |  |  |
| (cyclo 31–34)[Ac-D-Leu^11, His^12, CML^13,39, Nle^17, Glu^31 Lys^34]-sauvagine(8–40) [Example 3] |  | effectively antagonize CRF activity |  |  |
| (cyclo 31–34)[Ac-D-Phe^11, His^12, CML^13,39, Nle^17, Glu^31, Orn^34]-sauvagine(11–40) [Example 8] |  | effectively antagonize CRF activity |  |  |
| (cyclo 31–34)[Ac-D-Tyr^11, His^12, CML^13,39, Nle^17, Glu^31, Lys^34]-sauvagine(11–40) [Example 4] |  | effectively antagonize CRF activity |  |  |
| (cyclo 31–34)[D-Phe^11, Lys^34]-Ucn(11–40) [Example 10A] | little or no effect | effectively antagonize CRF activity | very good selectivity |  |
| [Ac-Asp^8,D-Phe^11,CML^13,39, Lys^34]-Ucn(8–40) [Example 10D] | little or no effect | effectively antagonize CRF activity | very good selectivity |  |
| [D-Phe^11, Gln^31,Lys(Ac)^34]-Ucn(11–40) [Example 10B] | little or no effect | effectively antagonize CRF activity | very good selectivity |  |
